Measured values reported in ChEMBL document CHEMBL4190228, “Covalent inhibitors design and discovery” (Eur J Med Chem, 2017).

Legend:
[1] = molecular target: Tyrosine-protein kinase BTK (Homo sapiens) (UniProt Q06187); test: Receptor occupancy at BTK in human Ramos B cells at 1 uM preincubated for 1 hr followed by compound washout measured after 20 hrs by PP-BODIPY probe based fluorescence assay; type: cell-based
Chain of Tyrosine-protein kinase BTK (Homo sapiens) (Q06187 whole entry): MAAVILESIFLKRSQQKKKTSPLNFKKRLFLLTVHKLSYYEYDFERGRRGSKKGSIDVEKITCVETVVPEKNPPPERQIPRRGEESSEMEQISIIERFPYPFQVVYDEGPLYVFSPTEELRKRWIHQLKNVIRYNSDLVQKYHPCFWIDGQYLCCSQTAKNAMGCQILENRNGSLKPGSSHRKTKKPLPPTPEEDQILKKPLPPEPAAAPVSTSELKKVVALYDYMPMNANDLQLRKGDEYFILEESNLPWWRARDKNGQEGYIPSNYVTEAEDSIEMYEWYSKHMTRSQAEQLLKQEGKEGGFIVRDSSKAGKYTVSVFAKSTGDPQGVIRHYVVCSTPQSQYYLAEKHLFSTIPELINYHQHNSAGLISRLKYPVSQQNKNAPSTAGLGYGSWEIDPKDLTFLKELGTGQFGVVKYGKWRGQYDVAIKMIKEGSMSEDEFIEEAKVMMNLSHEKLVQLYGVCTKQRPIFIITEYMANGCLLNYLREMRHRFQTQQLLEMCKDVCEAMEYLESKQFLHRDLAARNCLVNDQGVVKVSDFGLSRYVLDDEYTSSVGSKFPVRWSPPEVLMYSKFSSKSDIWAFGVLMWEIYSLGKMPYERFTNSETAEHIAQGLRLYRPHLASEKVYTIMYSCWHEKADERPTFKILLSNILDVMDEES

Compound | Occ [1] [%] | T1/2 (Francisella tularensis) [h]
CC(C)(C)/C=C(\C#N)C(=O)N1CCC[C@@H](n2nc(-c3ccc(Oc4ccccc4)cc3)c3c(N)ncnc32)C1 | 50 | 
CC(C)(C)NC(=O)[C@H]1CC[C@H]2[C@@H]3CC[C@H]4NC(=O)C=C[C@]4(C)[C@H]3CC[C@]12C |  | 4.7 to 7.1
C/C=C(\C#N)C(=O)N1CCC[C@@H](n2nc(-c3ccc(Oc4ccccc4)cc3)c3c(N)ncnc32)C1 | 5 | 
